Source: patent US11104618B2, “Fertilizer composition and methods of making and using same” (SABIC GLOBAL TECHNOLOGIES B.V., priority 2015, dated 2021)

Legend:
[1] = Thermal stability of NBTPT at urea melt temperature by HPLC; type: physicochemical
Experimental: The thermal stability of neat NBTPT and NBTPT contained within a core, as disclosed herein, can be determined by HPLC. For example, neat NBTPT or a core containing NBTPT can be exposed to 135° C. (133-135° C. is the typical temperature range of a urea melt) and can continuously be analyzed by HPLC every 5 min, until 30 min on analysis was reached. Such data will determine whether the NBTPT has better thermal stability when contained within a core, as compared to neat NBTPT.
Stability of inhibitors in urea melt: Extrudates containing inhibitors were tested for their stability in urea melt using HPLC and LCMS.

Upland Crowley Soil = assay: Nitrogen loss after 17 days of exposure to soil (IFDC)
Experimental: The nitrogen volatilization was measured in different soils for several samples and compared to products on the market, such as Agrotain®, ESN®, and SuperU®. The samples were tested in Greenville soil, Crowley soil, and Brownfield Soil. Crowley soil consists of very deep, somewhat poorly drained, very slowly permeable soils that formed in clayey fluviomarine deposits of the Pleistocene age. The soil exist in nearly level to very gently sloping soils and occur on flat coastal plains terraces. The slope is dominantly less than 1 percent but ranges to up to 3 percent. The mean annual precipitation is about 1549 mm (61 in), and the mean annual air temperature is about 20 degrees C. (68 degrees F.), where the soil is found. The soil is fine, […], and […].

Row | Compound | thermal stability of neat NBTPT ([1]; neat, exposed to 133-135° C. over time, FIG. 13) | thermal stability of NBTPT within a fertilizer core particle ([1]; within a core exposed to 133-135° C. over time, FIG. 14) | Cumulative Nitrogen Loss (mg) by 17 Days (Upland Crowley Soil; 17 days of exposure to Upland Crowley Soil) [mg] | % Urea (Upland Crowley Soil; nitrogen loss relative to urea, 17 days, Upland Crowley Soil) [%] | % Reduction in Nitrogen Loss (Upland Crowley Soil; versus urea, 17 days, Upland Crowley Soil) [%]
1 | CCCCNP(N)(N)=S [NBTPT, N-(n-butyl) thiophosphoric triamide] | decomposes at this temperature over time | stable over time and does not decompose | – | – | –
2 | NC(N)=O [Urea, urea] | – | – | 299.08 | 100 | 0
